Source: patent US20230116733A1, “NOVEL INDAZOLE DERIVATIVE AND USE THEREOF” (KOREA RESEARCH INSTITUTE OFCHEMICAL TECHNOLOGY, priority 2019, published 2023)
Entries after “also recorded” stand apart in the source; their conditions may differ. Structures can show the parent of a compound that is named as a salt. Where two headings read alike, the source gives them in different places.

What was measured:
K562 = test: Assay for anticancer activity, cell viability (Cell Counting Kit-8); type: cell-based; details: K562 cells, 10 μM compound, 3 days
Procedure: (§1) Assay for anticancer activity was conducted as follows. Corresponding cancer cells were seeded at a density of 4,000 cells/well into 96-well plates and stabilized for 24 hours. Thereafter, the cells in each well were treated with 10 μM of the each of the compounds for 3 days. Then, cell viability was assayed using Cell Counting Kit-8 from Dojindo.

U937 = test: as above; type: cell-based; details: U937 cells, 10 μM compound, 3 days
Procedure: as §1

TRIB2 [1] = biological target: T1, TRIB2 (Homo sapiens, UniProt Q92519); test: TRIB2 kinase activity assay (Eurofins, 33P-ATP filter binding); type: biochemical; design: purchased Eurofins
T1 sequence (Q92519 1-343): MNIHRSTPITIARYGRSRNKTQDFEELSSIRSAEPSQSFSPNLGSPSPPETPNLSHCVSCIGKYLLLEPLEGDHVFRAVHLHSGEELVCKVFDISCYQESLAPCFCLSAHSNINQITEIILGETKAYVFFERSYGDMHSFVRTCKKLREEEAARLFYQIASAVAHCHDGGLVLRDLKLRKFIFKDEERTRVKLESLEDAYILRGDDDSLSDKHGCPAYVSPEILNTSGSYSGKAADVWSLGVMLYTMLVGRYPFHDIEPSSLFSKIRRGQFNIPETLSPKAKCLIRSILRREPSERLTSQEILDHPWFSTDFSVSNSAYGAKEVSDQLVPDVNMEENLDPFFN
Procedure: TRIB2 kinase activity assay was conducted in Eurofins. […] Afterward, the reaction was terminated with 0.5% phosphoric acid.

A549 = test: Assay for anticancer activity, cell viability (Cell Counting Kit-8); type: cell-based; details: A549 cells, 10 μM compound, 3 days
Procedure: as §1

HepG2 = test: as above; type: cell-based; details: for Cell viability (% of Con. 10 μM) HepG2: HepG2 cells, 10 μM compound, 3 days
Procedure: as §1

YAP [2] = test: Phosphorylation of YAP protein in liver cancer cells (FIG. 1); type: cell-based
YAP [3] = test: p-YAP level in ovarian cancer cell line A2780 (FIG. 1); type: cell-based
TRIB2 [4] = biological target: T1, TRIB2; test: Phosphorylation of TRIB2 protein in liver cancer cells (FIG. 1); type: cell-based; design: endogenous in cells; host or cells: HepG2; details: liver cancer cell line HepG2, dose-dependent
[5] = human TRIB2, 15 μM gamma-33P-ATP, 120 minutes at room temperature, read-out: TRIB2 Kimase activity assay IC50

| IC50 (TRIB2 [1]; [5]) [nM] | Structure (SMILES) | Cell viability (% of Con. 10 μM) A549 (A549) | Cell viability (% of Con. 10 μM) HepG2 (HepG2) | other results |
| --- | --- | --- | --- | --- |
| 1 to 10 | O=C(Nc1ccc2c(c1)CNCC2)c1n[nH]c2ccc(-c3cccnc3F)cc12 [Compound 55, 5-(2-fluoropyridin-3-yl)-N-(1,2,3,4-tetrahydroisoquinolin-7-yl)-1H-indazole-3-carboxamide hydrochloride] | 10 % of Con. | 12 % of Con. |  |
| 10 to 100 | Cn1cc(-c2ccc3[nH]nc(C(=O)Nc4ccncc4)c3c2)cn1 [Compound 29, 5-(1-methyl-1H-pyrazol-4-yl)-N-(pyridin-4-yl)-1H-indazole-3-carboxamide] | 31 % of Con. | 16 % of Con. |  |
| 1 to 10 | CCCn1cc(-c2ccc3[nH]nc(C(=O)Nc4ccncc4)c3c2)cn1 [Compound 36, 5-(1-propyl-1H-pyrazol-4-yl)-N-(pyridin-4-yl)-1H-indazole-3-carboxamide] | 28 % of Con. | 15 % of Con. |  |
| 10 to 100 | Cn1ncc2c(NC(=O)c3n[nH]c4ccc(-c5cccnc5F)cc34)ccnc21 [Compound 65, 5-(2-fluoropyridin-3-yl)-N-(1-methyl-1H-pyrazolo[3,4-b]pyridin-4-yl)-1H-indazole-3-carboxamide] | 24 % of Con. | 28 % of Con. |  |
| 10 to 100 | O=Cc1ccc(-c2ccc3[nH]nc(C(=O)Nc4ccncc4)c3c2)o1 [Compound 47, 5-(5-formylfuran-2-yl)-N-(pyridin-4-yl)-1H-indazole-3-carboxamide] | 55 % of Con. | 32 % of Con. |  |
| 1 to 10 | CC1(C)Cc2ccc(NC(=O)c3n[nH]c4ccc(-c5cccnc5F)cc34)cc2CN1 [Compound 71, N-(3,3-dimethyl-1,2,3,4-tetrahydroisoquinolin-7-yl)-5-(2-fluoropyridin-3-yl)-1H-indazole-3-carboxamide] | 10 % of Con. | 9 % of Con. |  |
| 10 to 100 | O=C(NCc1ccncc1)c1n[nH]c2ccc(-c3cccnc3F)cc12 [Compound 51, 5-(2-fluoropyridin-3-yl)-N-(pyridin-4-ylmethyl)-1H-indazole-3-carboxamide] | 44 % of Con. | 37 % of Con. |  |
| 1 to 10 | CC1(C)NCCc2ccc(NC(=O)c3n[nH]c4ccc(-c5cccnc5F)cc34)cc21 [Compound 59, N-(1,1-dimethyl-1,2,3,4-tetrahydroisoquinolin-7-yl)-5-(2-fluoropyridin-3-yl)-1H-indazole-3-carboxamide] | 2 % of Con. | 6 % of Con. |  |
| 10 to 100 | O=C(Nc1ccncc1)c1n[nH]c2ccc(-c3ccc(N4CCNCC4)cc3)cc12 [Compound 46, 5-(4-(piperazin-1-yl)phenyl)-N-(pyridin-4-yl)-1H-indazole-3-carboxamide hydrochloride] | 58 % of Con. | 46 % of Con. |  |
| 1 to 10 | O=C(Nc1ccc2c(c1)CN(C(=O)C(F)(F)F)CC2)c1nn(C2CCCCO2)c2ccc(-c3cccnc3F)cc12 (stereo not drawn) [Compound 53, 5-(2-fluoropyridin-3-yl)-1-(tetrahydro-2H-pyran-2-yl)-N-(2-(2,2,2-trifluoroacetyl)-1,2,3,4-tetrahydroisoquinolin-7-yl)-1H-indazole-3-carboxamide] | 13 % of Con. | 10 % of Con. |  |
| 1 to 10 | O=C(Nc1ccc2c(c1)CCNC2)c1n[nH]c2ccc(-c3cccnc3F)cc12 [Compound 64, 5-(2-fluoropyridin-3-yl)-N-(1,2,3,4-tetrahydroisoquinolin-6-yl)-1H-indazole-3-carboxamide] | 8 % of Con. | 7 % of Con. |  |

Further lines, the compound ahead of its results:

| Structure (SMILES) | IC50 (TRIB2 [1]; [5]) [nM] | Cell viability (% of Con. 10 μM) A549 (A549) | Cell viability (% of Con. 10 μM) HepG2 (HepG2) | other results |
| --- | --- | --- | --- | --- |
| O=C(NC1CCNCC1)c1n[nH]c2ccc(-c3cccnc3)cc12 [Compound 4, N-(piperidin-4-yl)-5-(pyridin-3-yl)-1H-indazole-3-carboxamide] | 10 to 100 |  |  | Cell viability (% of Con. 10 μM) K562 (K562): 41 % of Con.; Cell viability (% of Con. 10 μM) U937 (U937): 50 % of Con. |
| CC(C)(C)OC(=O)N1CCC(NC(=O)c2n[nH]c3ccc(-c4cccnc4F)cc23)CC1 [Compound 1, tert-butyl-4-(5-(2-fluoropyridin-3-yl)-1H-indazole-3-carboxamido)piperidine-1-carboxylate] | 10 to 100 |  |  | Cell viability (% of Con. 10 μM) K562 (K562): 49 % of Con.; Cell viability (% of Con. 10 μM) U937 (U937): 34 % of Con. |
| O=C(NC1CCNCC1)c1n[nH]c2ccc(-c3cccnc3F)cc12 [Compound 2, 5-(2-fluoropyridin-3-yl)-N-(piperidin-4-yl)-1H-indazole-3-carboxamide] | 10 to 100 |  |  | Cell viability (% of Con. 10 μM) K562 (K562): 16 % of Con.; Cell viability (% of Con. 10 μM) U937 (U937): 12 % of Con. |
| O=C(Nc1ccncc1)c1nn(C2CCCCO2)c2ccc(-c3cccnc3F)cc12 (stereo not drawn) [Compound 66, 5-(2-fluoropyridin-3-yl)-N-(pyridin-4-yl)-1-(tetrahydro-2H-pyran-2-yl)-1H-indazole-3-carboxamide] |  | 55 % of Con. | 11 % of Con. | IC50 (TRIB2 [1]): 10 to 100 nM |
| O=C(Nc1ccncc1)c1n[nH]c2ccc(-c3cccnc3F)cc12 [Compound 17, 5-(2-fluoropyridin-3-yl)-N-(pyridin-4-yl)-1H-indazole-3-carboxamide] | 1 to 10 | 17 % of Con. | 15 % of Con. | inhibition of the growth of liver cancer cell line HepG2 (in words) (HepG2; HepG2): highly inhibitory; YAP protein degradation (YAP [2]): promote YAP protein degradation; inhibitory activity against YAP (in words) (YAP [2]): inhibitory activity against YAP; phosphorylation of YAP protein (YAP [2]; liver cancer cell line HepG2, dose-dependent, FIG. 1): decreases the phosphorylation; level of p-YAP (YAP [3]): reduce the level of p-YAP; also recorded: has an inhibitory activity against YAP; phosphorylation of TRIB2 protein (TRIB2 [4]): decreases the phosphorylation |
| O=C(Nc1ccncc1)c1n[nH]c2ccc(-c3cnn(C4CCNCC4)c3)cc12 [Compound 73, 5-(1-(piperidin-4-yl)-1H-pyrazol-4-yl)-N-(pyridin-4-yl)-1H-indazole-3-carboxamide hydrochloride] |  | 49 % of Con. | 36 % of Con. | IC50 (TRIB2 [1]): 10 to 100 nM |
| O=C(Nc1ccncc1)c1n[nH]c2ccc(-c3cn[nH]c3)cc12 [Compound 26, 5-(1H-pyrazol-4-yl)-N-(pyridin-4-yl)-1H-indazole-3-carboxamide] | 10 to 100 | 30 % of Con. | 24 % of Con. |  |
| CC(C)n1cc(-c2ccc3[nH]nc(C(=O)Nc4ccncc4)c3c2)cn1 [Compound 28, 5-(1-isopropyl-1H-pyrazol-4-yl)-N-(pyridin-4-yl)-1H-indazole-3-carboxamide] | 10 to 100 | 17 % of Con. | 16 % of Con. |  |
| O=Cc1cc2c(cc1-c1ccc3[nH]nc(C(=O)Nc4ccncc4)c3c1)OCO2 [Compound 52, 5-(6-formylbenzo[d][1,3]dioxol-5-yl)-N-(pyridin-4-yl)-1H-indazole-3-carboxamide] |  | 39 % of Con. | 32 % of Con. | IC50 (TRIB2 [1]): 10 to 100 nM |
